According to patent publication US10092570B2 (Incyte Corporation, priority 2011, dated 2018):

What follows are molecules tested against PI3Kδ (p110δ/p85α) (Homo sapiens (Human), UniProt O00329) (assay: Example A3: PI3Kδ scintillation proximity assay). Conditions: scintillation proximity assay, 20 μM ATP, 4 nM PI3Kδ; read-out: PI3Kδ SPA IC50.
Chain of PI3Kδ (p110δ/p85α) (O00329 whole entry): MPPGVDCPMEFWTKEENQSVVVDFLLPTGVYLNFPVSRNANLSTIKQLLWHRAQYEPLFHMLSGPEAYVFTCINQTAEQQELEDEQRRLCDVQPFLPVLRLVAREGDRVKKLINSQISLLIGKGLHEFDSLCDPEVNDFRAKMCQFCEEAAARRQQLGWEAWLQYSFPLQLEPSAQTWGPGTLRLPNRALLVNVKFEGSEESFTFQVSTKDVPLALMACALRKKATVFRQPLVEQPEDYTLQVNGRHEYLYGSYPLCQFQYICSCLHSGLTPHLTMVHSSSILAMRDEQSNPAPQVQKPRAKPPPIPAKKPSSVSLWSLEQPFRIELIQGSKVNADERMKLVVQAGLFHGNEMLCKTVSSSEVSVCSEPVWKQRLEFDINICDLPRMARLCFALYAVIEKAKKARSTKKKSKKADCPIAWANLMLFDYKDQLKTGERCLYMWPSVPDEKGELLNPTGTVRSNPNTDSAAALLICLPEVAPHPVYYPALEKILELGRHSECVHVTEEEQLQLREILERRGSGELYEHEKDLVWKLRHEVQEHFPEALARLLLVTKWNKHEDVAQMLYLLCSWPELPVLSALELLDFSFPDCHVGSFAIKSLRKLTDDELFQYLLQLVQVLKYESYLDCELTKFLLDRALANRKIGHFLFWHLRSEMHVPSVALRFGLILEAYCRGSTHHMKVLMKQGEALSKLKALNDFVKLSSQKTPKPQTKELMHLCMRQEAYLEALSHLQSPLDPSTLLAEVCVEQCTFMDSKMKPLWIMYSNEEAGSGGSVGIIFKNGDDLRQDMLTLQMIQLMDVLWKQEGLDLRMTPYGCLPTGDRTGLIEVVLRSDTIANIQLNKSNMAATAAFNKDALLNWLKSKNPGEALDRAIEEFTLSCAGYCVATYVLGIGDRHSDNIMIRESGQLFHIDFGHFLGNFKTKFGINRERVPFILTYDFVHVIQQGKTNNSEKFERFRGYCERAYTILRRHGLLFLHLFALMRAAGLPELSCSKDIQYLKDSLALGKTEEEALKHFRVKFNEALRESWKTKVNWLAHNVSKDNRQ
Chain of PI3Kδ (p110δ/p85α) (P27986 whole entry partner): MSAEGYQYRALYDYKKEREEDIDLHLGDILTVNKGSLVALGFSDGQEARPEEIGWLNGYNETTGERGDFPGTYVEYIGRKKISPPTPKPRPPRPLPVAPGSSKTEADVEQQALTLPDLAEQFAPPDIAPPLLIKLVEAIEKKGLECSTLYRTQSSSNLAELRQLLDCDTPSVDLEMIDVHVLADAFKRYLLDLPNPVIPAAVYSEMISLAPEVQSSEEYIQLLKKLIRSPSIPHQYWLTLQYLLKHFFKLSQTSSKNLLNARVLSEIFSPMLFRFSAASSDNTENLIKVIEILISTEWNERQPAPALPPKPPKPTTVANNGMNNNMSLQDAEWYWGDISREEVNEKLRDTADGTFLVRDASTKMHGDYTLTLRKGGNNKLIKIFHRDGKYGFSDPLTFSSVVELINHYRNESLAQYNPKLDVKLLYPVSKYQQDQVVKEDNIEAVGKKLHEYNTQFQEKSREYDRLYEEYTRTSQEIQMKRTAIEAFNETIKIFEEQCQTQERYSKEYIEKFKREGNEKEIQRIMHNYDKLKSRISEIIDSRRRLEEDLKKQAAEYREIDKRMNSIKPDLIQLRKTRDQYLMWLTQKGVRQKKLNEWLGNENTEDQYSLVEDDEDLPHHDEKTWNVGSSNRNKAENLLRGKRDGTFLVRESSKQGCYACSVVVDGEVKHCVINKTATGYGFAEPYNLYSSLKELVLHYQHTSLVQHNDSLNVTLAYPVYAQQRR
Format: biochemical
Procedure: [γ-^33P]ATP (10 mCi/mL) was purchased from Perkin-Elmer (Waltham, Mass.). […] PI3Kδ (p110δ/p85α) was purchased from Millipore (Bedford, Mass.). ATP, MgCl2, DTT, EDTA, MOPS and CHAPS were purchased from Sigma-Aldrich (St. Louis, Mo.). Wheat Germ Agglutinin (WGA) YSi SPA Scintillation Beads was purchased from GE healthcare life sciences (Piscataway, N.J.).
The kinase reaction was conducted in polystyrene 384-well matrix white plate from Thermo Fisher Scientific in a final volume of 25 μL. Inhibitors were first diluted serially in DMSO and added to the plate wells before the addition of other reaction components. The final concentration of DMSO in the assay was 0.5%. The PI3K assays were carried out at room temperature in 20 mM MOPS, pH 6.7, 10 mM MgCl2, 5 mM DTT and CHAPS 0.03%. Reactions were initiated by the addition of ATP, the final reaction mixture consisted of 20 μM PIP2, 20 μM ATP, 0.2 μCi [γ-^33P] ATP, 4 nM PI3Kδ. […] 25 mM EDTA, 400 μM ATP. The final concentration of SPA beads was 1.0 mg/mL. After the plate sealing, plates were shaken overnight at room temperature and centrifuged at 1800 rpm for 10 minutes, the radioactivity of the product was determined by scintillation counting on Topcount (Perkin-Elmer). IC50 determination was performed by fitting the curve of percent control activity versus the log of the inhibitor concentration using the GraphPad Prism 3.0 software.
For `COc1c(C(C)n2nc(C)c3c(N)ncnc32)cc(Cl)c(C)c1C1CN(CC(F)(F)F)C1` (single isomer, unassigned) [Example 108, 1-(1-{5-Chloro-2-methoxy-4-methyl-3-[1-(2,2,2-trifluoroethyl)azetidin-3-yl]phenyl}ethyl)-3-methyl-1H-pyrazolo[3,4-d]pyrimidin-4-amine], the IC50 was < 10 nM.
`COc1c(C(C)n2nc(C)c3c(N)ncnc32)cc(Cl)c(C)c1C1CN(C[C@@H](O)C(F)(F)F)C1` (single isomer, unassigned) [Example 115] was tested, and the IC50 was < 10 nM.
For `COc1c(C(C)n2nc(C)c3c(N)ncnc32)cc(Cl)c(C)c1C1CN(C(=O)c2cnn(C)c2)C1` (single isomer, unassigned) [Example 117, 1-[1-(5-Chloro-2-methoxy-4-methyl-3-{1-[(1-methyl-1H-pyrazol-4-yl)carbonyl]azetidin-3-yl}phenyl)ethyl]-3-methyl-1H-pyrazolo[3,4-d]pyrimidin-4-amine], the IC50 was < 10 nM.
In the case of `COc1c(C(C)n2nc(C)c3c(N)ncnc32)cc(Cl)c(C)c1C1CN(C(=O)[C@H](C)O)C1` (single isomer, unassigned) [Example 118], the IC50 is reported as < 10 nM.
With `COc1c(C(C)n2nc(C)c3c(N)ncnc32)cc(Cl)c(C)c1C1CN(C2(CC#N)CCC2)C1` (single isomer, unassigned) [Example 161, [1-(3-{3-[1-(4-Amino-3-methyl-1H-pyrazolo[3,4-d]pyrimidin-1-yl)ethyl]-5-chloro-2-methoxy-6-methylphenyl}azetidin-1-yl)cyclobutyl]acetonitrile] the IC50 was < 10 nM.
`CNC(=O)CCc1c(C)c(Cl)cc(C(C)n2nc(C)c3c(N)ncnc32)c1OC` (single isomer, unassigned) [Example 179, 3-(3-(1-(4-Amino-3-methyl-1H-pyrazolo[3,4-d]pyrimidin-1-yl)ethyl)-5-chloro-2-methoxy-6-methylphenyl)-N-methylpropanamide 2,2,2-trifluoroacetate] was tested, and the IC50 was < 10 nM.
`COc1c(C(C)n2nc(C)c3c(N)ncnc32)cc(Cl)c(C)c1-c1cnn(C2CCN(C)CC2)c1` (single isomer, unassigned) [Example 181, 1-(1-(5-Chloro-2-methoxy-4-methyl-3-(1-(1-methylpiperidin-4-yl)-1H-pyrazol-4-yl)phenyl)ethyl)-3-methyl-1H-pyrazolo[3,4-d]pyrimidin-4-amine] was tested, and the IC50 was < 10 nM.
For `COc1c(C(C)n2nc(C)c3c(N)ncnc32)cc(Cl)c(C)c1-c1cnn(C2CCN(C(C)=O)CC2)c1` (single isomer, unassigned) [Example 182, 1-(1-{3-[1-(1-Acetylpiperidin-4-yl)-1H-pyrazol-4-yl]-5-chloro-2-methoxy-4-methylphenyl}ethyl)-3-methyl-1H-pyrazolo[3,4-d]pyrimidin-4-amine], the IC50 was < 10 nM.
`COc1c(C(C)n2nc(C)c3c(N)ncnc32)cc(Cl)c(C)c1-c1cnn(CCN(C)C)c1` (single isomer, unassigned) [Example 183, 1-[1-(5-Chloro-3-{1-[2-(dimethylamino)ethyl]-1H-pyrazol-4-yl}-2-methoxy-4-methylphenyl)ethyl]-3-methyl-1H-pyrazolo[3,4-d]pyrimidin-4-amine] was tested, and the IC50 was < 10 nM.
`CCOc1c(C(C)n2nc(C)c3c(N)ncnc32)cc(Cl)c(C)c1-c1cnn(C)c1` (single isomer, unassigned) [Example 197, 1-(1-(5-chloro-2-ethoxy-4-methyl-3-(1-methyl-1H-pyrazol-4-yl)phenyl)ethyl)-3-methyl-1H-pyrazolo[3,4-d]pyrimidin-4-amine] was tested, and the IC50 was < 10 nM.
In the case of `CCOc1c(C(C)n2nc(C)c3c(N)ncnc32)cc(Cl)c(C)c1-c1ccnc(C(=O)N(C)C)c1` (single isomer, unassigned) [Example 201], the IC50 is reported as < 10 nM.
`CCOc1c(C(C)n2nc(C)c3c(N)ncnc32)cc(Cl)c(C#N)c1C1CNC1` (single isomer, unassigned) [Example 212, 4-[1-(4-Amino-3-methyl-1H-pyrazolo[3,4-d]pyrimidin-1-yl)ethyl]-2-azetidin-3-yl-6-chloro-3-ethoxybenzonitrile] was tested, and the IC50 was < 10 nM.
With `CCOc1c(C(C)n2nc(C)c3c(N)ncnc32)cc(Cl)c(C#N)c1C1CN(CC2CC2)C1` (single isomer, unassigned) [Example 217, 4-[1-(4-Amino-3-methyl-1H-pyrazolo[3,4-d]pyrimidin-1-yl)ethyl]-6-chloro-2-[1-(cyclopropylmethyl)azetidin-3-yl]-3-ethoxybenzonitrile] the IC50 was < 10 nM.
In the case of `CCOc1c(C(C)n2nc(C)c3c(N)ncnc32)cc(Cl)c(C#N)c1C1CN(C(C)CO)C1` (single isomer, unassigned) [Example 224, 4-[1-(4-Amino-3-methyl-1H-pyrazolo[3,4-d]pyrimidin-1-yl)ethyl]-6-chloro-3-ethoxy-2-[1-(2-hydroxy-1-methylethyl)azetidin-3-yl]benzonitrile], the IC50 is reported as < 10 nM.
For `CCOc1c(C(C)n2nc(C)c3c(N)ncnc32)cc(Cl)c(C#N)c1C1CN(C2CCOC2)C1` (single isomer, unassigned) [Example 228, 4-[1-(4-Amino-3-methyl-1H-pyrazolo[3,4-d]pyrimidin-1-yl)ethyl]-6-chloro-3-ethoxy-2-[1-(tetrahydrofuran-3-yl)azetidin-3-yl]benzonitrile], the IC50 was < 10 nM.
For `CCOc1c(C(C)n2nc(C)c3c(N)ncnc32)cc(Cl)c(C#N)c1C1CN(C2CCOCC2)C1` (single isomer, unassigned) [Example 229, 4-[1-(4-Amino-3-methyl-1H-pyrazolo[3,4-d]pyrimidin-1-yl)ethyl]-6-chloro-3-ethoxy-2-[1-(tetrahydro-2H-pyran-4-yl)azetidin-3-yl]benzonitrile], the IC50 was < 10 nM.
With `CCOc1c(C(C)n2nc(C)c3c(N)ncnc32)cc(Cl)c(C#N)c1C1CN(CC2CCOC2)C1` (single isomer, unassigned) [Example 231, 4-[1-(4-Amino-3-methyl-1H-pyrazolo[3,4-d]pyrimidin-1-yl)ethyl]-6-chloro-3-ethoxy-2-[1-(tetrahydrofuran-3-ylmethyl)azetidin-3-yl]benzonitrile] the IC50 was < 10 nM.
`CCOc1c(C(C)n2nc(C)c3c(N)ncnc32)cc(Cl)c(C#N)c1C1CN(CCC(F)(F)F)C1` (single isomer, unassigned) [Example 234, 4-[1-(4-Amino-3-methyl-1H-pyrazolo[3,4-d]pyrimidin-1-yl)ethyl]-6-chloro-3-ethoxy-2-[1-(3,3,3-trifluoropropyl)azetidin-3-yl]benzonitrile] was tested, and the IC50 was < 10 nM.
In the case of `CCOc1c(C(C)n2nc(C)c3c(N)ncnc32)cc(Cl)c(C#N)c1C1CN(CC#N)C1` (single isomer, unassigned) [Example 235, 4-[1-(4-Amino-3-methyl-1H-pyrazolo[3,4-d]pyrimidin-1-yl)ethyl]-6-chloro-2-[1-(cyanomethyl)azetidin-3-yl]-3-ethoxybenzonitrile], the IC50 is reported as < 10 nM.
With `CCOc1c(C(C)n2nc(C)c3c(N)ncnc32)cc(Cl)c(C#N)c1C1CN(C(C)(C)CO)C1` (single isomer, unassigned) [Example 237, 4-[1-(4-Amino-3-methyl-1H-pyrazolo[3,4-d]pyrimidin-1-yl)ethyl]-6-chloro-3-ethoxy-2-[1-(2-hydroxy-1,1-dimethylethyl)azetidin-3-yl]benzonitrile] the IC50 was < 10 nM.
With `CCOc1c(C(C)n2nc(C)c3c(N)ncnc32)cc(Cl)c(C#N)c1C1CN(C(C)(C)C(N)=O)C1` (single isomer, unassigned) [Example 239, 2-(3-{3-[1-(4-Amino-3-methyl-1H-pyrazolo[3,4-d]pyrimidin-1-yl)ethyl]-5-chloro-6-cyano-2-ethoxyphenyl}azetidin-1-yl)-2-methylpropanamide] the IC50 was < 10 nM.
With `CCOc1c(C(C)n2nc(C)c3c(N)ncnc32)cc(Cl)c(C#N)c1C1CN(C(=O)C(C)(C)O)C1` (single isomer, unassigned) [Example 247, 4-[1-(4-Amino-3-methyl-1H-pyrazolo[3,4-d]pyrimidin-1-yl)ethyl]-6-chloro-3-ethoxy-2-[1-(2-hydroxy-2-methylpropanoyl)azetidin-3-yl]benzonitrile] the IC50 was < 10 nM.
`CCOc1c(C(C)n2nc(C)c3c(N)ncnc32)cc(Cl)c(C#N)c1C1CN(S(=O)(=O)CC)C1` (single isomer, unassigned) [Example 249, 4-[1-(4-Amino-3-methyl-1H-pyrazolo[3,4-d]pyrimidin-1-yl)ethyl]-6-chloro-3-ethoxy-2-[1-(ethylsulfonyl)azetidin-3-yl]benzonitrile] was tested, and the IC50 was < 10 nM.
With `CCOc1c(C(C)n2nc(C)c3c(N)ncnc32)cc(Cl)c(C#N)c1C1CN(C(=O)OC(C)C)C1` (single isomer, unassigned) [Example 254, Isopropyl 3-{3-[1-(4-amino-3-methyl-1H-pyrazolo[3,4-d]pyrimidin-1-yl)ethyl]-5-chloro-6-cyano-2-ethoxyphenyl}azetidine-1-carboxylate] the IC50 was < 10 nM.
With `COc1c(C(C)n2nc(C)c3c(N)ncnc32)cc(Cl)c(C#N)c1C1CNC1` (single isomer, unassigned) [Example 261, 4-[1-(4-Amino-3-methyl-1H-pyrazolo[3,4-d]pyrimidin-1-yl)ethyl]-2-azetidin-3-yl-6-chloro-3-methoxybenzonitrile] the IC50 was < 10 nM.
